Measured values published in patent publication US20210114983A1, “Cathepsin C inhibitors” (National Institute of Biological Sciences, Beijing, priority 2018, published 2021).

Columns and labels:
[1] = system: NE; test: In vivo study, NE activity in rat bone marrow lysates; settings: dose dependent
Description: (§1) C57BL/6 mice (20-25 g) were randomly divided into 4 groups (n=10) and kept at 5 animals per cage. Compound 31 was administered orally twice daily at 6.7, 20, 60 mg kg-1 day-1 for 6 days. The matched vehicle controls (0.5% Methocel™, 0.1% Tween 80 in 100 mM citrate buffer, pH 3) were also administered twice daily for 6 days. Mice were weighed and the dose adjusted accordingly on each day. Sprague Dawley (280-300 g) were conducted by intraperitoneal injection twice daily at 1, 5, 20 mg kg-1 day-1 for 8 days. Blood was sampled through eye puncture at 14 h intervals after the end of the administration. Then mice were terminated and bone marrow cells were immediately extracted from femurs and tibias using ice cold RPMI 1640 medium. Blood cells and bone marrow cells were lysed according to the protocols previously described 8 with some modifications. […]
(§2) The analysis was performed as previously described. […] Synthetic peptide substrates (Gly-Phe-AFC(SMBiochemicals) for CatC, methoxysuccinyl-Ala-Ala-Pro-Val-AMC (Sigma) for NE, minobenzoyl-Val-Ala-Asp-Cys-Ala-Asp-Gin-ethylenediamine 2,4-dinitrophenyl (Peptide Synthetics) for Pr3, and N-succinyl-Ala-Ala-Pro-Phe-ONA (Sigma) for CatG) were added before plates were read at fluorescence or absorbance. Assay kinetics was monitored for up to 90 min. Data were analyzed using GraphPad Prism (GraphPad Software, Inc., San Diego, Calif., USA).

[2] = target: T1, CatC (Mus musculus, UniProt P97821); test: In vivo study, CatC activity in mice bone marrow and blood lysates; settings: dose dependent
T1 construct: Blood cells and bone marrow cells were lysed; from tissue; host or cells: C57BL/6 mouse bone marrow and blood cell lysates
T1 sequence (P97821 25-134 limits assumed): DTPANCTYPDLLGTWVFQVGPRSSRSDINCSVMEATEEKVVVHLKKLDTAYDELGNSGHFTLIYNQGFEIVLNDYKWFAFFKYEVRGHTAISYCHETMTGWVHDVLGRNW
T1 sequence (P97821 231-393 limits assumed): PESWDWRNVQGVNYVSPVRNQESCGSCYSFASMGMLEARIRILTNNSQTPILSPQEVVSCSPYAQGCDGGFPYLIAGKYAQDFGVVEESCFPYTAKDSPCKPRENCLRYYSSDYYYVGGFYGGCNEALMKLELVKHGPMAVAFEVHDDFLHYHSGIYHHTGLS
T1 sequence (P97821 394-462 limits assumed): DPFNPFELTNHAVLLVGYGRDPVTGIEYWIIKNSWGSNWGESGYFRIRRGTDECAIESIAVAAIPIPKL
Description: as §1, §2

[3] = target: T2, CatC (Rattus norvegicus, UniProt P80067); test: In vivo study, CatC activity in rat bone marrow lysates; settings: dose dependent
T2 construct: bone marrow cells were immediately extracted from femurs and tibias; from tissue; host or cells: Sprague Dawley rat bone marrow cell lysate
T2 sequence (P80067 25-134 limits assumed): as the sequence (P97821 25-134 limits assumed) above, with S23H, S24P, D27H, A35P, V42I, L54V, H59Y, R86K, H88S, T89R counted along it
T2 sequence (P80067 230-393 limits assumed): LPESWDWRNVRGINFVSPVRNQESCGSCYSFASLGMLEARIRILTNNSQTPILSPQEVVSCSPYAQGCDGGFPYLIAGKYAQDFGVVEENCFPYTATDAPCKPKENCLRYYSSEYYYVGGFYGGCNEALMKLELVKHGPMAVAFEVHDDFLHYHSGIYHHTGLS
T2 sequence (P80067 394-462 limits assumed): as the sequence (P97821 394-462 limits assumed) above, with R20K, I26L, E27D, I31V, N38Q, V61M counted along it
Description: as §1, §2

[4] = system: CatG; test: In vivo study, CatG activity in mice bone marrow and blood lysates; settings: dose dependent
Description: as §1, §2

[5] = system: acute pancreatitis; test: Caerulein-induced acute pancreatitis; type: in vivo, C57BL/6 mice; settings: orally twice daily at 20 mg/kg for 6 days
Description: Induction of Pancreatitis. The acute pancreatitis was induced by hourly intraperitoneal injections of caerulein (50 μg/kg/body weight) for up to 8 h, 36 C57BL/6 mice (20-25 g) were randomly divided into 4 groups (n=5). Compound 28 were administered orally twice daily at 20 mg/kg for 6 days. The matched vehicle controls (0.5% Methocel™, 0.1% Tween 80 in 100 mM citrate buffer, pH 3) were also administered twice daily for 6 days. On the 6th day, mice were induced pancreatitis after compound administration and after the last caerulein injection, mice were administered compound. The sham-treated group was performed with the same as vehicle controls except that saline was administered instead of caerulein. Mice were killed at 1 h after the last caerulein injection. Tissue was harvested immediately after sacrificing the animals. A portion of pancreas samples were frozen in liquid nitrogen for preparation of homogenate. For histology, pancreas was fixed in 4.5% formalin for paraffin embedding and stained with hematoxylin and eosin. Serum samples were prepared and stored at −20 C. […] Compound 28 were administered orally twice daily at 20 mg/kg. The activity inhibition data of the compound-treated groups are shown as the percentage activity of a sham mean (set to 100% activity). Values are means±SEM. […]

[6] = system: CatG; test: In vivo study, CatG activity in rat bone marrow lysates; settings: dose dependent
Description: as §1, §2

[7] = system: Pr3; test: In vivo study, Pr3 activity in mice bone marrow and blood lysates; settings: dose dependent
Description: as §1, §2

[8] = system: NE; test: In vivo study, NE activity in mice bone marrow and blood lysates; settings: dose dependent
Description: as §1, §2

[9] = target: rhCatC (Cathepsin C) (Homo sapiens, UniProt P53634); test: In Vitro CatC Enzyme Assay; type: biochemical; settings: read-out: Cat C Enzy (Cathepsin C inhibitory activity, IC50)
rhCatC (Cathepsin C), sequence (P53634 25-134 limits assumed): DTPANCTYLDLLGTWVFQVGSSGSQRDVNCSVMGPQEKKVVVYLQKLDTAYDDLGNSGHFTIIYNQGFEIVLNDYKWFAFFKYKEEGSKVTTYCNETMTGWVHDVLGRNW
rhCatC (Cathepsin C), sequence (P53634 231-394 limits assumed): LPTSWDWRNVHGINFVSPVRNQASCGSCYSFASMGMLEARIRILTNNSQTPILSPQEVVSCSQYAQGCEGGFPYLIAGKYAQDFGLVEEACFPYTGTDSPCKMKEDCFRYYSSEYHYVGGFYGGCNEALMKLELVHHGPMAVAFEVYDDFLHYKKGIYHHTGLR
rhCatC (Cathepsin C), sequence (P53634 395-463 limits assumed): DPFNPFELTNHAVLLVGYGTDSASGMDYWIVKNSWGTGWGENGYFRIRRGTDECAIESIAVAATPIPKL
Description: In Vitro CatC Enzyme Assay
The CatC enzyme assay was performed in black 384-well plate. Firstly, rhCatC (440 nM) was activated by rhCatL (300 nM) in activation buffer (25 mM MES, 5 mM DTT, pH 6.0) at room temperature for 2 h and then activated rhCatC was diluted to 4.4 nM in assay buffer (25 mM MES, 50 mM NaCl, 5 mM DTT, 0.01% (v/v) Triton X100, pH 6.0), 14 μL activated rhCatC and 1 μL compound in 10% DMSO or 10% DMSO were incubated at room temperature for 3 h, and 5 μL substrate (Gly-Phe-AFC) was added to final concentration of 100 μM. After 60 min reaction, the product of the reaction was measured in the Enspire plate reader using Ex λ400 nm and Em λ505 nm for AFC. A standard irreversible CatC inhibitor 10 by AstraZeneca (J. Med. Chem. 2014, 57, 2357-2367) was used as an inhibitor control in the assay.

activation of CatC ([2]; mice blood): inhibited the activation
activation of CatC ([2]; mice bone marrow): inhibited the activation
activation of CatC [3]: inhibited the activation
IC50 [9]: 3 to 300 nM
SMILES: C=CC(=O)Nc1cc(Oc2nc(Nc3ccc(N4CCN(C)CC4)cc3OC)ccc2N2CCCCC2)ccc1C [Compound 28, N-(5-((6-((2-methoxy-4-(4-methylpiperazin-1-yl)phenyl)amino)-3-(piperidin-1-yl)pyridin-2-yl)oxy)-2-methylphenyl)acrylamide]
activation of NE [1]: inhibited the activation
activation of CatG ([4]; mice blood): inhibited the activation
activation of CatG ([4]; mice bone marrow): inhibited the activation
severity of acute pancreatitis [5]: reduced the severity of acute pancreatitis
activation of CatG [6]: inhibited the activation
activation of Pr3 ([7]; mice blood): inhibited the activation
activation of Pr3 ([7]; mice bone marrow): inhibited the activation
activation of NE ([8]; mice blood): inhibited the activation
activation of NE ([8]; mice bone marrow): inhibited the activation
